Biological target: full-length WDR5, C-terminal NanoLuc fusion (WDR5-C) (Homo sapiens, UniProt P61964)
Assay: NanoBRET tracer titration
Assay type: cell-based

SMILES: CN1CCN(c2ccc(-c3ccc(C(=O)NCCCOCCOCCOCCCNC(=O)CCc4ccc5n4[B-](F)(F)[N+]4=C(c6ccc[nH]6)C=CC4=C5)cc3)cc2NC(=O)c2c[nH]c(=O)cc2C(F)(F)F)CC1 [19c]
- Kd: ~1 µM
